Experimental data from patent publication US20090054358A1, “Flt3 inhibitors for immune suppression” (THE JOHN HOPKINS UNIVERSITY, priority 2004, published 2009).
Entries after “also recorded” stand apart in the source; their conditions may differ.

Legend:
[1] = system: co-stimulatory molecules B7.2 (CD 86) and B7-DC; assay: Expression of co-stimulatory molecules B7.2 (CD 86) and B7-DC on DCs; type: cell-based, Murine; conditions: AG1296 at 0, 1, or 10 μM
Protocol: FIG. 6 depicts the treatment of DCs with AG1296 at either 0, 1, or 10 μM and then analyzed for the expression of co-stimulatory molecules B7.2 (CD 86) and B7-DC.
(§1) To investigate the role of FL/FLT3 stimulation in regulating costimulatory protein expression by DC, […] or GM-CSF plus FL, were analyzed by Northern blotting for expression of B7-DC, a member of the B7 family of co-stimulatory molecules. […] The inhibition of FLT3 signaling led to a down-regulation of B7-DC as well as B7.2 (CD 86) in these DCs (FIG. 6).

BALB/c splenocytes = assay: Standard mixed lymphocyte reaction (MLR); type: cell-based, mice
Protocol: (§2) FLT3 inhibition decreases DC-based proliferation of T cells. For these experiments, DCs were generated as above from BALBc mice. The cells were left untreated or were treated with CEP701 and then plated with C57BL/6 splenocytes at the ratios shown. After 3 days, ^3H was added, and the proliferation determined. […] In FIG. 2b, BALB/c splenocytes were substituted for DCs, in order to test the inhibition of CEP701 on a standard mixed lymphocyte reaction (MLR). […] To determine whether T cell stimulatory response would be inhibited as a result of exposure to AG1296, two different T cell proliferative assays were conducted. […] In this standard mixed lymphocyte reaction, equal numbers of stimulator and responder cells (10^6 of each) were mixed in a 96 well plate, incubated for 4 days, pulsed with 3H-thymidine, and proliferation was determined by analyzing incorporation of tritium. DC-stimulated proliferation was also determined by incubating BM derived DCs (day 8, as above) at a ratio of 1:10 with responder allogeneic splenocytes, in the presence (10 μm) or absence of AG1296.

T cells [2] = assay: DC-stimulated proliferation of T cells (3H incorporation); type: cell-based, mice
Protocol: as §2

[3] = system: Dendritic cells (CD11c+ cells); assay: Apoptosis, survival of mature bone-marrow DCs treated with FLT3 inhibitors (FACS, Annexin V); type: cell-based, mice; conditions: for apoptosis in DCs (Annexin V binding): 24 hours; for survival and stimulation of the DCs: mature DCs, dose-response analysis, in the presence of GM-CSF+/−FL
Protocol: The survival and function of the DCs was investigated when exposed to FLT3 inhibitors. Mature DCs were incubated in a dose-response analysis to CEP 701, 5214 and AG 1296 in the presence of GM-CSF+/−FL.
Bone marrow (BM) was flushed from the extremities of mice with PBS, red blood cells (RBCs) were lysed in hypotonic buffer, and after washing the cells were plated at 2×10^6 cells/ml in GM-CSF (1000 U/ml) or GM+FL (100 ng/ml) containing medium. On days 2, 4, and 6, non-adherent cells were removed and adherent cells were washed prior to the addition of fresh medium. On day 8, non-adherent mature DCs were harvested, and replated in the absence or presence of CEP-701 at 5 or 50 nM. After 24 hours, cells were then stained for FACS analysis. CD11c+ cells were assessed for MHC class II expression and Annexin V binding (FIG. 1A).
After washing, the cells were plated at 2×10^6 cells/ml in GM-CSF (1000 U/ml)+FL (100 ng/ml) containing medium. On days 2, 4, and 6, non-adherent cells were removed and adherent cells were washed prior to the addition of fresh medium. On day 8, non-adherent mature DCs were harvested, and replated in the absence or presence of AG 1296. After 24 hours, cells were stained for FACS analysis. Dendritic cells (CD11c+ cells) were assessed for CD86 expression and Annexin V binding (FIG. 1B). […] For DCs to activate T cells, they present antigen bound to MHC molecules and express co-stimulatory proteins on their surfaces.

axons = assay: Degenerating axonal fibers in medial dorsal column of MOG-immunized mice; type: in vivo; conditions: cervical level 5, 210 days post disease induction, versus vehicle
Excerpt: In reference to FIG. 10, intact brain and spinal cords were removed from mice that were immunized with MOG peptide, and either treated with the vehicle control or CEP-701 after symptom onset. Following treatment and scoring, the mice were kept for an additional 2 months, then sacrificed and the CNS prepared for evaluation by preservation in formalin. Thin plastic sections ([…]) were generated from cervical level 5, followed by staining in Toluidine blue and axons were visualized. Total axon numbers and actively degenerating fibers in a predefined area of the medial dorsal column were enumerated by an experienced examiner in a blinded fashion. Plots show the number of degenerating axonal fibers in the defined field area for the sections of CEP-701 treated mice compared to vehicle control mice at 210 days post disease induction.

[4] = system: CD11c and NK cell populations; assay: Immune cell populations in spleens and lymph nodes of treated mice (FACS); type: in vivo, BALB/c mice; conditions: 20 mg/kg twice a day for 5 days
Protocol: BALB/c mice were treated with 20 mg/kg of CEP701 or vehicle twice a day for 5 days, and then were analyzed for their immune populations. Spleens and lymph nodes were harvested and collagenase digested to release DCs from the stroma. Cells were then washed and analyzed by FACS for the presence of T (CD3+/DX5−), NK (CD3−,DX5+), B (B220+, CD11c−) or DCs (CD11c+).

[5] = system: transgenic T cells that are specific for HA; assay: In vivo autoreactive T cell expansion in HA transgenic (137) mice given 6.5 T cells; conditions: 137 mice treated 3 days prior to and 5 days after T cell transfer
T cells [6] = assay: Direct stimulation of T cells on anti-CD3 plates with anti-CD28 antibody; type: cell-based; conditions: anti-CD3 coated plates, 2 days, 3H
Protocol: T cells were then stimulated with anti-CD28 antibody. After 2 days, 3H was added, and the proliferation determined.

[7] = Established experimental autoimmune encephalomyelitis (EAE), MOG 35-55; type: in vivo, C57BL/6 mice; conditions: 20 mg/kg, started within one day of initial symptoms, scored daily, blinded
Protocol: C57BL/6 mice were injected with 100 micrograms of the Established Experimental Allergic Encephalitomyelitis (EAE) inducing peptide MOG 35-55 in CFA with 400 micrograms of Mycobacterium tuberculosis. On the day of immunization and 48 hours later, mice were boosted with pertussis toxin, following standard protocols. […] Scores were as follows: 0 (no symptoms), 0.5 (partial loss of tail tonicity), 1 (full loss of tail tonicity), 2 (affected gait), 2.5 (partial hind limb paralysis) 3 (full hind limb paralysis) 4 (front and hind paralysis) 5 (moribund). 10 mice/group were treated in the study shown.

B7-DC = assay: Northern blot for hB7-DC in human bone marrow cells treated with cytokines; type: cell-based; conditions: FL added to GM-CSF
Protocol: as §1

## COc1cc2ncc(-c3ccccc3)nc2cc1OC [AG1296]
[1]
  expression of co-stimulatory molecule B7-DC on DCs: down regulated
  expression of co-stimulatory molecule B7.2 (CD 86) on DCs: down regulated
BALB/c splenocytes; allogeneic spleen cells, 10^6 each, 4 days, 3H-thymidine, AG1296 10 μm
  mixed lymphocyte reaction proliferation: inhibition
T cells [2]; BM derived DCs 1:10 with allogeneic splenocytes, AG1296 10 μm
  T cell proliferation induced by DCs: decrease in T cell proliferation; also recorded: inhibited
[3]; AG 1296 at 0, 1, and 10 μM, DCs generated in GM-CSF + FL
  apoptosis in DCs (Annexin V binding): confirmed; also recorded: induced apoptosis in DCs in a dose-dependent fashion
[3]; AG 1296 at 0, 1, and 10 μM, DCs generated in GM-CSF + FL, listed as AG 1296
  apoptosis in DCs (Annexin V binding): induction of apoptosis in a significant fraction of the DCs
[3]
  survival and stimulation of the DCs: decrease in survival and stimulation

## C[C@]12O[C@H](C[C@]1(O)CO)n1c3ccccc3c3c4c(c5c6ccccc6n2c5c31)CNC4=O [CEP-701]
axons
  number of degenerating axonal fibers (neurodegeneration): decrease in neurodegeneration
[4]
  B (B220+, CD11c−) cell population: no significant change
  DC (CD11c+) population: decreases
  NK (CD3−,DX5+) population: decreases
  T (CD3+/DX5−) cell population: no significant change
BALB/c splenocytes; BALB/c splenocytes substituted for DCs, CEP701
  mixed lymphocyte reaction (MLR) response: inhibited
[5]; listed as CEP 701
  autoreactive T cell expansion, as measured by thy 1.1: decreases an in vivo autoreactive immune response
[5]; listed as CEP701
  autoreactive T cell expansion, as measured by thy 1.1: decrease in the autoreactive T cell expansion
T cells [6]
  proliferation of directly stimulated T cells: does not inhibit their proliferation
T cells [2]; BALBc DCs treated with CEP701, plated with C57BL/6 splenocytes, 3 days, 3H
  DC-based proliferation of T cells: robust effect on decreasing proliferation of T cells
[3]; CEP-701 at 5 or 50 nM, DCs generated in GM-CSF alone or GM-CSF and FL
  apoptosis in DCs (Annexin V binding): induced apoptosis; also recorded: induction of apoptosis in a significant fraction of the DCs
[3]
  survival and stimulation of the DCs: decrease in survival and stimulation
[7]
  EAE clinical score (0-5): lower scores

## CC(C)OCc1ccc2c(c1)c1c3c(c4c(c1n2CCCO)Cc1ccccc1-4)C(=O)NC3 [CEP-5214]
[3]; CEP-5214, data not shown
  apoptosis in DCs: confirmed
[3]
  survival and stimulation of the DCs: decrease in survival and stimulation

B1: FL: FLT3 Ligand (FL), ligand that stimulates the FLT3 receptor (protein, UniProt P49771 27-235, looked up)
Fms-related tyrosine kinase 3 …: TQDCSFQHSPISSDFAVKIRELSDYLLQDYPVTVASNLQDEELCGGLWRLVLAQRWMERLKTVAGSKMQGLLERVNTEIHFVTKCAFQPPPSCLRFVQTNISRLLQETSEQLVALKPWITRQNFSRCLELQCQPDSSTLPPPWSPRPLEATAPTAPQPPLLLLLLLPVGLLLLAAAWCLHWQRTRRRTPRPGEQVPPVPSPQDLLLVEH
B7-DC
  B7-DC expression (Northern blot): greatly up-regulates
